“Also recorded” adds a separate entry of the source. Where two headings read alike, the source gives them in different places.

In general, half-life refers to the time needed for the level to fall by half in the phase considered.

The test system of data set [1] is mGluR2/3. The following applies: intra-accumbens infusion, microdialysis probes; cited from earlier work.
Data set [2] has as its system mGluR2/3 receptors. The following applies: perfusion into the accumbens, in vivo microdialysis; cited from earlier work.
Data set [3] deals with mGluR2/3. The note with it: cited from earlier work; for PFC glutamate levels: infusion/perfusion into PFC, microdialysis.
The target of data set [4] is T1, mGluR5 (Rattus norvegicus, UniProt P31424).
T1 construct: from tissue; host or cells: brain of living Sprague-Dawley rats (nucleus accumbens for CHPG microinjection; systemic dosing for MTEP, MPEP, Fenobam)
In words: Cue-induced cocaine relapse (active lever presses), CHPG microinjected into nucleus accumbens (FIG. 1). Type of data set: in vivo, rats. As for the experimental part:
Relapse was induced by presenting the animal with a tone and light compound cue that was previously associated with cocaine delivery during the self-administration training. […] Data were analyzed using one-way ANOVA (2,14)=5.20, p=0.021; *p<0.05 compared to extinction, +p<0.05 comparing cue+aCSF (artificial cerebrospinal fluid control injection).
(§1) All experiments were conducted in accordance with the US National Institutes of Health guidelines for the care and use of laboratory animals, and all procedures were approved by the Institutional Animal Care and Use Committee at the Medical University of South Carolina. One week after arrival, male Sprague-Dawley rats (250 g) were anesthetized with ketamine HCl (87.5 mg kg^−1 Ketaset, Fort Dodge Animal Health) and xylazine (5 mg kg^−1 Rompum, Bayer) and implanted with intravenous catheters. The catheters were flushed daily with cefazolin (0.2 ml of a 0.1 g/ml solution) and heparin (0.2 ml of 100 units) to prevent infection and maintain catheter patency. Rats were allowed to recover for a week before behavioral training (Baker et al. Nat. Neurosci 6:743-749, 2003).
Rats were trained to self-administer cocaine in a standard operant chamber with two retractable levers. The self-administration regimen consisted of 10d of self-administration at >10 infusions per session. […]

The target in data set [5] is T1, mGluR5. In words: Cocaine+cue induced reinstatement, low-dose mGluR5 antagonists in rats given N-acetylcysteine after extinction (FIG. 6). It counts as in vivo. The following applies: MPEP 1.0 mg/kg/ip or Fenobam 1.75 mg/kg/ip. As for the experimental part:
Top, treatment protocol for cocaine, N-acetylcysteine, and mGluR5 antagonists.
Rats were injected with low doses of MPEP (1.0 mg/kg/ip) or Fenobam (1.75 mg/kg/ip) (FIG. 6), both systemically active and selective mGluR5 receptor antagonists (Carroll, 2008; Montana et al., 2009).
as §1
Rats were trained to self-administer cocaine in a standard operant chamber with two retractable levers. The self-administration regimen consisted of 10d of self-administration at >10 infusions per session. […] Cocaine self-administering rats were often paired with yoked saline controls. Extinction procedures began 24 h after the rat met the acquisition criterion and lasted for at least 3 weeks. Lever presses were inconsequential throughout the extinction training

Data set [6] has as its system mGluR2/3 receptors. The following applies: bath application, accumbens slices; cited from earlier work.
The target in data set [7] is T1, mGluR5. The data set can be described thus: Cocaine relapse, chronic NAC or saline followed by acute MPEP (FIG. 3). It counts as in vivo. As for the experimental part: Data were analyzed by a two-way ANOVA interaction F(1,20)=7.17, p=0.015; *p<0.05 comparing saline to MPEP.
Towards this end, the effects of chronic NAC followed by acute administration of mGluR5 modulator (MPEP) on relapse in the rat model were examined.
as §1
Rats were trained to self-administer cocaine in a standard operant chamber with two retractable levers. The self-administration regimen consisted of 10d of self-administration at >10 infusions per session. […] Cocaine self-administering rats were often paired with yoked saline controls. […]

For data set [8] the following is noted: cited from earlier work.
In data set [9] the test system is XC transporter. The note with it: cited from earlier work.
The conditions of data set [10]: cited from earlier work. The source holds these as a separate data set.
For data set [11] the following is noted: humans; cited from earlier work.
The conditions of data set [12]: cited from earlier work. The source holds these as a separate data set.
Data set [13] deals with system XC−. The note with it: cystine added to brain slices; cited from earlier work.
[14] abbreviates: rats given N-acetylcysteine after extinction training.

T1 sequence (P31424 21-1203): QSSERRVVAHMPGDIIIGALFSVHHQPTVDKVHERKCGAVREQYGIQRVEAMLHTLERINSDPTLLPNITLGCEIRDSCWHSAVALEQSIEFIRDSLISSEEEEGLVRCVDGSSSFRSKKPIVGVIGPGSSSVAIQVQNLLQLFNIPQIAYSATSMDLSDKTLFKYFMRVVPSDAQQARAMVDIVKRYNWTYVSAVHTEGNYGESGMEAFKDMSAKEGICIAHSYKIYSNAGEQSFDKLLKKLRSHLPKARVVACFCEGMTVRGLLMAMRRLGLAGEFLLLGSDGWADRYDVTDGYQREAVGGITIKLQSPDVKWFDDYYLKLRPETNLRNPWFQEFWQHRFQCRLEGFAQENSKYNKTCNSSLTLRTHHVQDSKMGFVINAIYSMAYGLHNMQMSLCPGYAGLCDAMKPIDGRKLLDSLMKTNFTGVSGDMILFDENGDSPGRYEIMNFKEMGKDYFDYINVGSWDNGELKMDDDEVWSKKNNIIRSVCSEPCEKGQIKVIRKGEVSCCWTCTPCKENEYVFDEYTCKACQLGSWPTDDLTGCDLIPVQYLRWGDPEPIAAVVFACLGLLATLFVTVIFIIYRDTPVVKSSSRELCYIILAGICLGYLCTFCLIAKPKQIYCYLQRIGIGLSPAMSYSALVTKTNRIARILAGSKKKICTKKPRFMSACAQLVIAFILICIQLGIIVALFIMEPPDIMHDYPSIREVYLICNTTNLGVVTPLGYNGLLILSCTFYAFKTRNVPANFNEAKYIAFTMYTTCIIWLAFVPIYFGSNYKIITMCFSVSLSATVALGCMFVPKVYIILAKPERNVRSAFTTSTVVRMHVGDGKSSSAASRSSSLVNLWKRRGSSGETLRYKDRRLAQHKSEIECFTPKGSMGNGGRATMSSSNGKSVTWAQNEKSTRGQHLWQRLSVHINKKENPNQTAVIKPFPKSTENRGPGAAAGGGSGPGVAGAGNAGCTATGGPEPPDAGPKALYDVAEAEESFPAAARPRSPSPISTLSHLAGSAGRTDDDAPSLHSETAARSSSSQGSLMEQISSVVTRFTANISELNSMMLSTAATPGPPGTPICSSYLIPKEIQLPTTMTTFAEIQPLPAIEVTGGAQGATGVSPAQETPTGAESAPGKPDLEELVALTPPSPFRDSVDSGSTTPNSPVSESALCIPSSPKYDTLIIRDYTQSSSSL

As for `O=C(O)CCC(CP(=O)(O)O)C(=O)O` (centres unmarked) [2-PMPA, 2-(phosphonomethyl)-pentanedioic acid], the basal dopamine levels result in data set [1] is “reduce”.

As to `N[C@@]1(C(=O)O)CN[C@@H](C(=O)O)C1` [APDC, (2R,4R)-4-aminopyrrolidine-2,4-dycarboxylate], the “extracellular glutamate in the accumbens” value in [2] is recorded as “reduced extracellular glutamate levels”. For the same compound, the PFC glutamate levels result in [3] was “without effect”.

In the case of `NC(C(=O)O)c1cc(O)ccc1Cl` (centres unmarked) [CHPG], the “relapse induced by agonist alone” value in data set [4] (CHPG alone, without cue) is on record as “did not induce relapse”. In addition, the “cue-induced relapse (active lever presses)” value in data set [4] (CHPG into nucleus accumbens plus tone and light cue, rats withdrawn 3-5 weeks after cocaine self-administration) is “dose-dependant increase”.

As for `N[C@H](C(=O)O)C1[C@@H](C(=O)O)[C@@H]1C(=O)O` (stereo partly drawn) [DCG-4, (2S,1′R,2′R,3′R)-2-(2,3-dicarboxycyclopropyl)glycine], in [1], the basal dopamine levels entry is given as “reduce”.

Turning to `CN1CC(=O)N=C1NC(=O)Nc1cccc(Cl)c1` [Fenobam, 1-(3-chlorophenyl)-3-(3-methyl-5-oxo-4H-imidazol-2-yl)urea], the “relapse to cocaine seeking (lever pressing)” value in [5] (setting [14]) is “significantly reduced lever pressing; also recorded: inhibit relapse”; in [5] (vehicle treated rats) it was “not”.

As for `N[C@H](C(=O)O)[C@H]1C[C@@H]1C(=O)O` [L-CCG1, (2S,1′S,2′S)-2-(2′-carboxycyclopropyl)glycine], in [6], the mEPSC amplitude result is “without affecting”, the mEPSC frequency result is reported as “reduced” and the paired pulse ratios result is reported as “increased”.

In the case of `N[C@](CC1c2ccccc2Oc2ccccc21)(C(=O)O)[C@H]1C[C@@H]1C(=O)O` [LY341495], the “extracellular glutamate in the accumbens” value in [2] is given as “increased glutamate release”. In data set [3] (infusion in the prefrontal cortex), the “glutamate levels in subcortical regions (nucleus accumbens and VTA)” value was “increased”. Moreover, the PFC glutamate levels result in data set [3] is “increase”.

Turning to `N[C@@]1(C(=O)O)CO[C@H]2[C@H](C(=O)O)[C@H]21` [LY379268], in [1], the basal dopamine levels entry was “reduce”.

Regarding `N[C@]1(C(=O)O)[C@H]2[C@@H](C[C@H]1OCc1ccc(Cl)c(Cl)c1)[C@]2(F)C(=O)O` [MGS0039], in data set [1], the basal dopamine levels result is listed as “increase”.

For the compound `Cc1cccc(C#Cc2ccccc2)n1` [MPEP, 2-methyl-6-(phenylethynyl)pyridine], the “lever pressing (measure of relapse)” value was “reduced cocaine relapse; also recorded: reduced lever pressing” in data set [7] (acute MPEP in animals treated chronically with NAC); “without effect and not” in [7] (acute MPEP in animals treated chronically with saline). The results for the “relapse to cocaine seeking (lever pressing)” value in [5] (setting [14]) and in data set [5] (vehicle treated rats) were “significantly reduced lever pressing; also recorded: inhibit relapse” and “not”, respectively.

In the case of `CC(N)(C(=O)O)c1ccc(P(=O)(O)O)cc1` (stereo not drawn) [MPPG, α-methyl-4-phosphonophenylglycine], the basal dopamine levels entry in data set [1] is on record as “increase”.

Consider `CC(=O)N[C@@H](CS)C(=O)O` [NAC, N-acetylcysteine], for which the solubility result in data set [8] is recorded as “more soluble”. The extinction responding entry in data set [9] (NAC for 2 weeks during extinction from heroin self-administration) is “reduces extinction responding”. Also, the reinstatement result in data set [9] (NAC for 2 weeks during extinction from heroin self-administration, up to one month after last injection) was “prevents reinstatement”. In addition, the extinction responding entry in data set [9] (NAC treatment during self-administration, after chronic cocaine) is reported as “reduces extinction responding”. In addition, in data set [9] (after chronic cocaine), the “extracellular glutamate levels in the accumbens” value is listed as “normalizes”. Also, in data set [9] (animal models of drug addiction), the “relapse to drug seeking” value is “inhibit relapse to cocaine and heroin; also recorded: prevents relapse to drug seeking”. In addition, the protection against relapse entry in [9] (chronic NAC during cocaine self-administration or heroin extinction, several weeks after last NAC injection) was “enduring protection against relapse”. Further, the peak concentration in data set [10] (600 mg i.v. dose) was 300 µM. Also, in data set [10] (humans, 400 mg oral dose), the “peak NAC plasma concentration” value was 10 to 17 µM. For the same compound, the “peak NAC plasma concentration” value in [10] (humans, 600 mg oral dose) was 16 µM. For the same compound, in [10] (humans, 400 or 600 mg oral dose), the “time of peak NAC plasma concentration after administration” value is on record as “one”. Also, in [10] (oral NAC), the half-life is 6.25 h, the oral bioavailability is given as 4-10% and the “time to peak plasma concentration following ingestion” value was 1 to 2 h. For the same compound, in data set [11], the “cocaine, nicotine and marijuana use” value is “reduces but does not abolish”; the compulsive gambling behavior result is “reduce”; the “desire for cocaine use” value is listed as “reduce”; the marijuana abuse result is on record as “reduce”. Also, in data set [11], the “number of cigarettes smoked” value is on record as “reduce”. Besides, the side effects entry in data set [12] (clinical use) is “minimal and mostly limited to gastrointestinal discomfort; also recorded: without any noticeable side effects”. The toxicity entry in [12] (compared with cystine and cysteine) is reported as “less toxic”.

Take `N[C@@H](CSSC[C@H](N)C(=O)O)C(=O)O` [cystine]: the solubility result in data set [8] was “very limited solubility”. In addition, the extracellular glutamate levels entry in data set [13] is listed as “increases”.
